Data taken from patent US6410320B1, “Method and compositions for isolation and growth of kidney tubule stem cells, in vitro kidney tubulogenesis and ex vivo construction of renal tubules” (The University of Michigan, priority 1992, dated 2002).

System: renal proximal tubule cells
Assay: Phenotypic transformation / lumen formation (tubulogenesis) in a confluent monolayer, by light and electron microscopy
Type: cell-based, rabbit
Conditions: density-arrested confluent monolayer; where present TGF-β1 10 ng/ml, EGF 1 nM, RA 0.1 μM; 144 hours in Example 1
Description: Rabbit renal proximal tubule cells were grown in primary culture by techniques reported by Humes et al. in Lab. Invest. 64:538-45 (1991). The cells were grown in 35 mm Corning culture dishes with serum-free, hormonally defined Dulbecco's Modified Eagle Hams F-12 media (1:1, v/v) containing L-glutamine, penicillin, streptomycin, 50 nM hydrocortisone, 5 μg/ml of insulin, and 5 μg/ml of transferrin. The cultures were maintained in a humidified 5% CO2/95% air incubator at 37° C. Medium was changed every 3 to 5 days, depending on nutrient requirements based upon cell number. Cultures became confluent in 9 to 12 days. Once confluent, various agents as described below were added in 20 μl aliquots at various times to promote changes in morphologic phenotype or pattern formation.
Specimens for ultrastructural analysis were fixed with 2% glutaraldehyde in Sorenson's buffer (pH 7.2, 310 mOsm). Postfixation occurred in 1% OsO4 followed by dehydration in ethanol. Specimens were transferred through propylene oxide into monomer mixture (poly/Bed 812A, Araldite, DDSA and DMP-30) and polymerized at 60° C. Thin sections were stained with uranyl acetate and lead citrate, and examined in a Zeiss 9-S2 transmission electron microscope.
Of note, in each aggregation of cells one or two lumen structures were usually observed in random sectioning of tissue culture preparations. […]

CC1=C(/C=C/C(C)=C/C=C/C(C)=C/C(=O)O)C(C)(C)CCC1 [RA, all-trans retinoic acid]
morphologic phenotype of the monolayer / lumen formation: no dramatic effect on the appearance of the monolayer

TGF-β1: transforming growth factor-β1 (porcine platelets) from R & D Systems
morphologic phenotype of the monolayer / lumen formation: no lumen formation was observed
